Measured values from BindingDB's records for doi:10.1016/j.bmcl.2007.10.088 (University of Minnesota Minneapolis, 2008).
pKi: −log10 of the molar value.

Molecular target: Bcl-xL (Homo sapiens)
Assay: Inhibition of Bak peptide binding to human recombinant Bcl-Xl

| SMILES | pKi |
| --- | --- |
| O=C(O)[C@H](Cc1ccccc1)N1C(=O)/C(=C/c2ccc(OCCOc3ccc(/C=C4\SC(=S)N([C@@H](Cc5ccccc5)C(=O)O)C4=O)cc3)cc2)SC1=S | 6.01 |
| CCOC(=O)[C@H](Cc1ccccc1)N1C(=O)/C(=C/c2ccc(OCOc3ccc(/C=C4\SC(=S)N([C@@H](Cc5ccccc5)C(=O)OCC)C4=O)cc3)cc2)SC1=S | 4.23 |
| O=C(OCCOC(=O)[C@H](Cc1ccccc1)N1C(=O)/C(=C/c2ccc(Br)cc2)SC1=S)[C@H](Cc1ccccc1)N1C(=O)/C(=C/c2ccc(Br)cc2)SC1=S | 3.87 |
